Measurements as given in patent US8575150B2, “Triazole derivatives for treatment of Alzheimer's disease” (Merck Sharp & Dohme Corp., priority 2008, dated 2013).

Target: T1, γ-secretase, Aβ(1-42) production in SH-SY5Y neuroblastoma cells overexpressing SPA4CT (Homo sapiens, UniProt P49768)
T1 construct: Human SH-SY5Y neuroblastoma cells overexpressing the direct γ-secretase substrate SPA4CT; endogenous in cells; host or cells: human SH-SY5Y neuroblastoma cells, transfected only with the substrate SPA4CT and induced with sodium butyrate
Assay: Cell-based γ-secretase assay, Aβ(42) detection
Details: overnight incubation
Protocol: Cell-Based γ-Secretase Assay
Human SH-SY5Y neuroblastoma cells overexpressing the direct γ-secretase substrate SPA4CT were induced with sodium butyrate (10 mM) for 4 hours prior to plating. Cells were plated at 35,000 cells/well/100 μl in 96-well plates in phenol red-free MEM/10% FBS, 50 mM HEPES, 1% Glutamine and incubated for 2 hrs at 37° C., 5% CO2.
Appropriate vehicle and inhibitor controls were used to determine the window of the assay.
After incubation overnight at 37° C., 5% CO2, 25 μl and […] were transferred into a standard Meso avidin-coated 96-well plate for detection of Aβ(40) and Aβ(42) peptides, respectively. 25 μl Meso Assay buffer (PBS, 2% BSA, 0.2% Tween-20) was added to the Aβ(40) wells followed by the addition of 25 μl of the respective antibody premixes to the wells:
Aβ(42) premix: 1 μg/mlruthenylated G2-11 antibody, 4 μg/ml; and biotinylated 4G8 antibody diluted in Origen buffer
(Biotinylated 4G8 antibody supplied by Signet Pathology Ltd; G2-10 and G2-11 antibodies supplied by Chemicon)
After overnight incubation of the assay plates on a shaker at 4° C., the Meso Scale Sector 6000 Imager was calibrated according to the manufacturer's instructions. After washing the plates 3 times with 150 μl of PBS per well, 150 μl Meso Scale Discovery read buffer was added to each well and the plates were read on the Sector 6000 Imager according to the manufacturer's instructions.
The total signal and the background were defined by the corresponding Me2SO and inhibitor controls.

Structure (SMILES)	IC50
COc1cc(-c2nc(C)no2)ccc1-c1cn(C2CCc3c(F)cccc3N(CC(F)(F)F)C2=O)nn1 (stereo not drawn) [Example 57, 6-fluoro-3-{4-[2-methoxy-4-(3-methyl-1,2,4-oxadiazol-5-yl)phenyl]-1H-1,2,3-triazol-1-yl}-1-(2,2,2-trifluoroethyl)-1,3,4,5-tetrahydro-2H-1-benzazepin-2-one]	431 nM
O=C1C(n2cc(-c3ncc(-c4ccncc4)cn3)nn2)CCc2c(F)cccc2N1CC(F)(F)F (stereo not drawn) [Example 2, 6-fluoro-3-{4-[5-(pyridin-4-yl)pyrimidin-2-yl]-1H-1,2,3-triazol-1-yl}-1-(2,2,2-trifluoroethyl)-1,3,4,5-tetrahydro-2H-1-benzazepin-2-one]	1330 nM
COc1cc(-c2cn(C3CCc4c(F)cccc4N(CC(F)(F)F)C3=O)nn2)ccc1Nc1cccnc1 (stereo not drawn) [Example 92, 6-fluoro-3-{4-[3-methoxy-4-(pyridin-3-ylamino)phenyl]-1H-1,2,3-triazol-1-yl}-1-(2,2,2-trifluoroethyl)-1,3,4,5-tetrahydro-2H-1-benzazepin-2-one]	226 nM
O=C1C(n2cc(-c3ccc(Oc4cccnc4)cc3)nn2)CCc2c(F)cccc2N1CC(F)(F)F (stereo not drawn) [Example 61, 6-fluoro-3-{4-[4-(pyridin-3-yloxy)phenyl]-1H-1,2,3-triazol-1-yl}-1-(2,2,2-trifluoroethyl)-1,3,4,5-tetrahydro-2H-1-benzazepin-2-one]	537 nM

The next compounds have a lower IC50 than those just listed; values first:

IC50	Structure (SMILES)
83 nM	O=C1C(n2cc(-c3ccc(-c4ccnnc4)cc3)nn2)CCc2c(F)cccc2N1CC(F)(F)F (racemic) [Example 123, (R) and (S)-6-fluoro-3-[4-(4-pyridazin-4-ylphenyl)-1H-1,2,3-triazol-1-yl]-1-(2,2,2-trifluoroethyl)-1,3,4,5-tetrahydro-2H-1-benzazepin-2-one]
80 nM	COc1cc(-c2cn(C3CCc4ccccc4N(CC(F)(F)F)C3=O)nn2)ccc1-c1ccncc1 (stereo not drawn) [Example 1, 3-[4-(3-methoxy-4-pyridin-4-ylphenyl)-1H-1,2,3-triazol-1-yl]-1-(2,2,2-trifluoroethyl)-1,3,4,5-tetrahydro-2H-1-benzazepin-2-one]
